We go through two compounds from patent publication US20250360164A1, “METHOD FOR REDUCING THE INCIDENCE OF PECTORAL MYOPATHY IN POULTRY FEED” (CAN TECHNOLOGIES, INC., priority 2017, published 2025).

The test system of data set [1] is wooden breast. As to conditions: previous state-of-the-art, poster 450 P, 2015; cited from earlier work.
The conditions of data set [2]: nitrate dosage up to at least 400 mg/kg body weight, starter and grower phases. The protocol: The amount of one or more nitrates, one or more nitrites, or a mixture thereof fed to the poultry in the feed compositions and/or methods described herein can also be expressed in mg of nitrates and/or nitrites per kg body weight of the poultry. In some embodiments, the nitrate/nitrite amount in the feed composition is less than 500 mg/kg, less than 450 mg/kg, less than 400 mg/kg, or less than 300 mg/kg. In some embodiments, the nitrate/nitrate amount in the feed composition is in the range of 10 to 500 mg/kg, 10 to 400 mg/kg; 10 to 300 mg/kg; 25 to 400 mg/kg; 25 to 200 mg/kg; 50 to 400 mg/kg; 50 to 150 mg/kg; or 100 to 400 mg/kg.

SMILES strings stand for the structures.

In the case of `N=C(N)NCCC[C@H](N)C(=O)O` [arginine], the “reduction of wooden breast” value in data set [1] is “inefficient in providing effective reduction”.
`O=[N+]([O-])[O-].O=[N+]([O-])[O-].[Ca+2]` [calcium nitrate]: in data set [2], the effect on growth result is on record as “does not negatively affect growth” and the nitrate poisoning result is given as “does not cause nitrate poisoning”.
